Read-outs that look alike come from different tables or passages of the source.
Columns and labels:
[1] = type: in vivo, Mouse, C57BL6; conditions: 15 mg/kg IP BID, subgroup I group 3, three animals
Protocol: Detailed Clinical Observations: Scheduled detailed clinical observations were not conducted on this study. Unscheduled clinical observations were made on mice flagged by trained personnel during daily moribundity/morbidity checks for any reason.
The remaining subgroups II-V, group 3 animals were dosed at 10 mg/kg (indicated as “*” in Tables 3-4 above). The experimental observations described below in this Example were focused on the lower dose (10-mg/kg) mice.

ovalbumin IgG1 = test: Serum anti-ovalbumin IgG1 ELISA after OVA/CFA immunization of mice; type: in vivo, Mouse, C57BL6; conditions: for anti-OVA IgG1 concentrations in serum: 7.5 and 10 mg/kg IP BID for a single day, 3, 6, 14 or 28 days after immunization, Day 30 and Day 62 samples
Protocol: A study was performed to evaluate the effect of plinabulin on boosting B-cell response to immunization. Samples were prepared using an emulsion of complete Freund's adjuvant (CFA) with the foreign protein ovalbumin (OVA), each with varying concentrations of plinabulin (plinabulin doses range from 0.01 mg to 30 mg), and the control was prepared with no plinabulin added. Normal healthy mice were immunized by subcutaneous injection of the CFA+OVA emulsion +/−plinabulin, and/or intraperitoneal injection of ALUM+OVA adjuvant +/−plinabulin (n=5 mice per plinabulin dose group). At different time points as discussed below in this Example, the animals were bled to collect serum for evaluating the concentration of IgG that binds OVA in the serum.
DOSE PREPARATION OF OVALBUMIN EMULSIONS IN COMPLETE FREUND'S ADJUVANT: EndoFit™ Ovalbumin Kit (InvivoGen, USA), containing 10 mg powder in one glass vial and 10 mL of sterile endotoxin-free physiological water in one glass vial, and CFA 10 mL in one glass vial were received in good condition and stored at 2-8° C. until Day 1. The sterile endotoxin-free saline solution was allowed to reach room temperature before use. Inside a BSL2 cabinet, 5 mL sterile water was added into the vial containing 10 mg of OVA and gently agitated to obtain a homogenous 2 mg/mL OVA solution. To 2.5 mL of CFA, 2.5 mL of OVA solution was added; and the mixture was emulsified by vigorously mixing into two connected 10 mL locking syringes to prepare a 1 mg/mL OVA/CFA emulsion. The emulsification was kept chilled by placing the apparatus into crushed ice for 5 minutes, then mixing and cooling was repeated an additional two times. Stability of the emulsion was tested by adding a drop into water to verify that the emulsion would not dissipate. The emulsion was transferred into five 1 mL syringes for injection and kept cool on crushed ice until immunization. The emulsification processes were repeated with an additional 2.5 mL of OVA solution and 2.5 mL of CFA during immunization of animals to use within 4 hours of preparation.
DOSE PREPARATION OF TEST ARTICLES: Plinabulin solution (Plin-A) at a 0.75 mg/mL was prepared on each day of dosing. Plinabulin powder (3 mg) was weighed into a separate light protected amber vial at room temperature. Using a micropipette, 284 μL of Tween-80 was added to the amber vial and vortex for 1 minute. 1,020 μL of propylene glycol was added to the amber vial and vortexed for 15 minutes, then sonicated in a water bath for 30 minutes. Finally, 2,696 μL of 5% dextrose in water was added to the solution and vortexed for 3 minutes to achieve 4 mL of a 0.75 mg/mL plinabulin solution. Plinabulin solution (Plin-B) at a 1.0 mg/mL was prepared on each day of dosing. Plinabulin powder (3 mg) was weighed into a separate light protected amber vial at room temperature. Using a micropipette, 213 μL of Tween-80 was added to the amber vial and vortex for 1 minute. 765 μL of propylene glycol was added to the amber vial and vortex for 15 minutes, then sonicated in a water bath for 30 minutes. Finally, 2,022 μL of 5% dextrose in water was added to the solution and vortexed for 3 minutes to achieve 3 mL of a 1.0 mg/mL plinabulin solution.
ANTI-OVALBUMIN ASSAY: Mouse anti-OVA IgG1 ELISA kits (Cayman Chemical, USA) were purchased to perform the assay. Serum samples from Day 30 were assayed in 1-to-2,000, 1-to-6,000 and 1-to-20,000 dilution. Serum samples from Day 62 were assayed in 1-to-2,000 and 1-to-20,000 dilution. […]

[2] = human; cited from earlier work
[3] = mice; cited from earlier work

Q: What does the source list for CC(C)(C)c1[nH]cnc1/C=c1\[nH]c(=O)/c(=C/c2ccccc2)[nH]c1=O [Plinabulin, (3Z,6Z)-3-Benzylidene-6-{[5-(2-methyl-2-propanyl)-1H-imidazol-4-yl]methylene}-2,5-piperazinedione]?
A: clinical observations within 1 day following test article administration [1]: decreased activity, irregular breathing, dehydration, and body cold to touch; anti-OVA IgG1 concentrations in serum (ovalbumin IgG1): inhibitory effects on anti-OVA in 4 out of 5 subgroups; anti-OVA IgG1 concentrations in serum (ovalbumin IgG1; listed as plinabulin): significantly reduced, or tended to be reduced; concentration of anti-OVA IgG in serum versus immunization without plinabulin (ovalbumin IgG1; mice immunized with CFA+OVA or ALUM+OVA +/- plinabulin): higher concentrations of anti-OVA IgG; OVA IgG1 production in serum on Day 62 (ovalbumin IgG1; subgroup 1: 7.5 mg/kg IP BID, 1 hour after immunization, Day 62): significantly increased OVA IgG1 production; production of OVA IgG1 in serum on Day 30 (ovalbumin IgG1; subgroup 1: plinabulin IP BID 3 hours apart, 1 hour after OVA/CFA immunization, Day 30): dose-dependently increased the production of OVA IgG1 on Day 30 without reaching statistical significance; plasma elimination half-life [2]: 5 to 6 h; plasma elimination half-life [3]: 1.5 to 2 h

Reference: patent publication US20210177952A1, “METHOD AND COMPOSITION FOR STIMULATING IMMUNE RESPONSE” (BeyondSpring Pharmaceuticals, Inc., priority 2018, published 2021)
